In test [1] the test system is skin-derived precursors (SKPs). The test is described as follows: Western blot analysis of NFH protein. Format: cell-based, rat (neonate Wistar). The note with it: three days after treatment, Figure 3B, peptides at 1 to 5 μM, less than VHL(157–171): VHL(157–168) p < 0.01, TAT p < 0.001. The method, then:
(§1) Rodent skin-derived precursor cells (SKPs), which can differentiate to neurons, were used. SKPs were previously isolated from the back dermis of neonate Wistar rats by the authors. These cells were cultured in growth medium composed of DMEM/F12 (1:1; Gibco, Grand Island, NY, USA) containing 2% B27 supplement (Gibco), 20 ng/mL epidermal growth factor (EGF; Upstate Biotechnology, Lake Placid, NY, USA), and 40 ng/mL bFGF (PeproTech EC Ltd., Rocky Hill, NJ, USA) in a humidified incubator at 37 °C with 5% CO2. The floating clusters of cultured cells were centrifuged and dissociated into a single-cell suspension by use of a Pasteur pipette with a flame-polished tip. These single cells were then re-suspended into at a concentration of 50,000 cells/mL for passage or experiments.
(§2) For neuronal differentiation, cells were dissociated into a single-cell suspension by use of a Pasteur pipette and re-suspended into a concentration of 50,000 cells/mL in DMEM/F12 without serum, neurotrophic factors or growth factors. Then, the cells were cultured on poly-L-lysine-coated dishes or cover glasses, and the synthesized peptides at concentrations from 1 to 5 μM were added to the culture medium and delivered into the cells. Three days or more later, the cells were used for morphological, immunocytochemical, immunohistochemical, electrophysiological and immunoprecipitation studies, as well as for Western blot analysis.
(§3) Cultured cells were washed 3 times in cold PBS and then scraped into ice-cold PBS. After incubation on ice for 10 min, the cells were lysed with lysis buffer and centrifuged, after which the supernatants were collected. Each sample was separated by SDS-PAGE under reducing conditions and transferred electrophoretically to nitrocellulose filters. Non-specific binding of antibody was blocked by incubation with 5% donkey serum for 1 h. Western blots were probed with anti-MAP2 antibody, anti-NFH antibody, anti-ChAT antibody, anti-GAD antibody, anti-rhodopsin antibody, anti-TH antibody, and anti-elongin C antibody (Santa Cruz, San Diego, CA, USA) followed by horseradish peroxidase-conjugated secondary antibodies. Protein bands were detected by using a chemical luminescence detection system (ECL Plus Western Blotting Reagent Pack, Amersham, Hemel Hempstead, UK). Images were analyzed with LAS-1000 (Fujifilm, Tokyo, Japan), and the density of the bands was determined by using Image Gauge software (Fujifilm).

For the next test, the system named is JAK2. The test is described as follows: Western blotting of JAK2 before and after peptide treatment. The format is cell-based, rat. The following applies: Western blot, Figure 5B, p < 0.01. (In general: In western blotting, separated proteins are transferred to a membrane and probed.)
The next test has as its system STAT3. The test is described as follows: Western blotting of STAT3 before and after peptide treatment. The format is cell-based, rat. The note with it: Western blot, Figure 5B, p < 0.01.
The test system of test [2] is skin-derived precursors (SKPs). Description: Western blot analysis of neuronal markers in NDD peptide-treated cells. The following applies: Figure 6A. Format: cell-based, rat (neonate Wistar). Here is the method:
as §1, §2, §3

Test [3] concerns skin-derived precursors (SKPs). The test is described as follows: Immunocytochemistry with anti-Neurofilament-H (NFH) antibody. Format: cell-based, rat (neonate Wistar). The note with it: immunocytochemistry, peptides at 1 to 5 μM; mean ± SEM; vs VHL(157–171): p < 0.01 for VHL(157–168), p < 0.005 for TAT. The method, then:
as §1, §2
Cultured cells were fixed with 4% paraformaldehyde in PBS (Phosphate buffered saline) for 10 min at room temperature. Cells were incubated for 1 h at room temperature with primary antibodies. Antibodies against anti-MAP2 antibody (Sigma-Aldrich, St. Louis, MO, USA), anti-Neurofilment-H (NFH) antibody (Sigma-Aldrich), anti-NeuN antibody (Merk Millipore, Billerica, MA, USA), anti-GFAP antibody (DAKO, Santa Clara, CA, USA), anti-tyrosine hydroxylase (TH) antibody (Merk Millipore, Billerica, MA, USA), anti-choline acetyl transferase (ChAT) antibody (Abbiotec, San Diego, CA, USA), anti-glutamic acid decaboxylase (GAD) antibody (Enzo Life Sciences, Flamingdale, NY, USA), and anti-rhodopsin antibody (Santa Cruz, San Diego, CA, USA) were used. […] Nuclear counterstaining was done with DAPI (Molecular Probes, Eugene, OR, USA) or TO-PRO-3 (Molecular Probes), and observations were made with a fluorescence microscope system (FV300, Olympus, Tokyo, Japan). We counted the number of immuno-positive cells with a given antibody in 4 to 6 random non-overlapping visual fields (50–200 cells per field) in each experiment. […] The degree of positivity was expressed as the rate of immuno-positive cells to the total number of nuclei stained with DAP1 or TO-PRO-3.

For test [4], the system named is skin-derived precursors (SKPs). The test is described as follows: Neurite outgrowth / morphological evaluation of neuronal differentiation. The format is cell-based, rat (neonate Wistar). The method, then: as §1, §2
Neurite outgrowth with length exceeding the diameter of the neuronal soma is often assessed as a morphological index of neuronal differentiation. After a single-cell suspension was made by pipetting, the cells were cultured in DMEN/F12 medium alone at 37 °C in a 5% CO2 incubator. Thereafter, neurite outgrowth was evaluated with the following 4 levels: +++, for above 50% of the cells showing neurite outgrowth; ++, for 20–50% with neurite outgrowth; +, for 5–19% having neurite outgrowth; and −, for below 5% of the cells with neurite outgrowth.

From publication PMC5855688, “BC-Box Motif-Mediated Neuronal Differentiation of Somatic Stem Cells” (International Journal of Molecular Sciences, 2018) come the findings set out here.

Entries after “also recorded” stand apart in the source; their conditions may differ.

As for “YARAAARQARATLKERCLQVVRSLVK [VHL(157–171), NDD in pVHL: BC-box motif plus five amino acids, conjugated with PTD]”, the “NFH protein amount / band” value in test [1] is given as “A distinct band for NFH; also recorded: significantly greater amount of anti-NFH protein”. Further, in the test with JAK2, the JAK2 degradation result is “JAK2 and STAT3 were indeed degraded”. Besides, the STAT3 degradation entry in the test on STAT3 was “JAK2 and STAT3 were indeed degraded”. Also, the “Expression of ChAT” value in test [2] (choline acetyltransferase) is listed as “high”. Also, the “Expression of TH” value in test [2] (tyrosine hydroxylase) is “moderate”. The “Percentage of NFH-positive cells” value in test [3] turned out to be 60.4 ± 6.4%. The “Neurite Outgrowth Activity” value in test [4] (BC-box motif plus five C-terminal amino acids peptides, delivered with TAT PTD, 1 to 5 μM) is reported as “+++ (above 50% of the cells showing neurite outgrowth)”; in test [4] (Figure 2A, rates of cells having neurites, peptides at 1 to 5 μM, VHL157–168 vs VHL(157–171) p < 0.005), “showed neurite outgrowth activity to the same extent as VHL(155–171); also recorded: greatest of rate of cells having neurites”.
